From the OPERA property sets (Mansouri et al. 2018)

With `CO[C@H]1C[C@H](O[C@H]2[C@H](C)[C@@H](O[C@@H]3O[C@H](C)C[C@H](N(C)C)[C@H]3O)[C@@H](C)C[C@]3(CO3)C(=O)[C@H](C)[C@@H](O)[C@@H](C)[C@@H](C)OC(=O)[C@@H]2C)O[C@@H](C)[C@@H]1O` as the compound, how does the logP read?
Its logP is 1.69.

Which logP does the source give for `CO[C@@H]1[C@@H](O[C@@H]2O[C@H](C)[C@@H](O[C@H]3C[C@@](C)(O)[C@@H](OC(=O)CC(C)C)[C@H](C)O3)[C@H](N(C)C)[C@H]2O)[C@@H](CC=O)C[C@@H](C)C(=O)C=CC2OC2C[C@@H](C)OC(=O)C[C@H]1OC(C)=O` (stereo not given in full) here?
The logP was 3.04.

For `CCC1OC(=O)C(C)C(OC2CC(C)(OC)C(O)C(C)O2)C(C)C(OC2OC(C)CC(N(C)C)C2O)C(C)(O)CC(C)C(N)C(C)C2OC(=O)OC12C` (stereo not given), which logP is on record?
Its logP is 2.92.

With `CCC1OC(=O)C[C@@H](O)[C@H](C)[C@@H](O[C@@H]2O[C@H](C)C[C@H](N(C)C)[C@H]2O)[C@@H](CC=O)C[C@@H](C)C(=O)C=C[C@]2(C)OC2C1C` (stereo not given in full) as the compound, how does the logP read?
Its logP is 2.19.

Which logP does the source give for `CC[C@H]1OC(=O)[C@H](C)[C@@H](O[C@H]2C[C@@](C)(OC)[C@@H](O)[C@H](C)O2)[C@H](C)[C@@H](O[C@@H]2O[C@H](C)C[C@H](N(C)C)[C@H]2O)[C@](C)(O)C[C@@H](C)CN(C)[C@H](C)[C@@H](O)[C@]1(C)O` here?
The logP was 4.02.

For `CC[C@H]1OC(=O)[C@H](C)[C@@H](O[C@H]2C[C@@](C)(OC)[C@@H](O)[C@H](C)O2)[C@H](C)[C@@H](O[C@@H]2O[C@H](C)C[C@H](N(C)C)[C@H]2O)[C@](C)(O)C[C@@H](C)C(=O)[C@H](C)[C@@H](O)[C@]1(C)O`, which logP is on record?
Its logP is 3.06.

For `COC1C(OC(C)=O)CC(=O)OC(C)CC2OC2C=CC(=O)C(C)CC(CC=O)C1OC1OC(C)C(O)C(N(C)C)C1O` (stereo not given), which logP is on record?
Its logP is 0.3.

For `CC[C@H]1OC(=O)C[C@@H](O)[C@H](C)[C@@H](O[C@@H]2O[C@H](C)[C@@H](O[C@H]3C[C@@](C)(O)[C@@H](O)[C@H](C)O3)[C@H](N(C)C)[C@H]2O)[C@@H](CC=O)C[C@@H](C)C(=O)C=CC(C)=CC1CO[C@@H]1O[C@H](C)[C@@H](O)[C@@H](OC)[C@H]1OC` (stereo not given in full), which logP is on record?
The logP was 1.63.

For `CC[C@H]1OC(=O)C[C@@H](O)[C@H](C)[C@@H](O[C@@H]2O[C@H](C)[C@@H](O)[C@H](N(C)C)[C@H]2O)[C@@H](CCN2C[C@H](C)C[C@H](C)C2)C[C@@H](C)C(=O)C=CC(C)=C[C@@H]1CO[C@@H]1O[C@H](C)[C@@H](O)[C@@H](OC)[C@H]1OC`, which logP is on record?
Its logP is 3.8.

For `CCC1OC(=O)CC(O)C(C)C(OC2OC(C)C(O)C(N(C)C)C2O)C(CC=O)CC(C)C(=O)C=CC(C)=CC1CO` (stereo not given), which logP is on record?
Its logP is 0.99.
